One test relates to Sclerotinia sclerotiorum. Description: Antifungal activity against benzimidazole-sensitive Sclerotinia sclerotiorum SS-JSZ01 assessed as inhibition of mycelium growth after 3 days followed by 96 hr incubation in light incubator. The format is functional, organism-based.
Another test has as its system Botrytis cinerea. In words: Antifungal activity against benzimidazole moderately resistant Botryotinia fuckeliana BC-JfC02 assessed as inhibition of mycelium growth after 3 days followed by 96 hr incubation in light incubator. The format is functional, organism-based.

What is called EC50 is the concentration needed to bring the measured effect to its halfway point.

In brackets after ≈: the same amount, converted by molar mass.

`c1ccc(CSc2nnc(-c3nc4ccccc4[nH]3)o2)cc1`: the results for the concentration for a half-maximal effect (EC50) in the test with Sclerotinia sclerotiorum and in the test on Botrytis cinerea were 22.9 µg/mL (≈ 74.4 µM) and 18.4 µg/mL (≈ 59.6 µM), respectively.

Turning to `CC(C)Sc1nnc(-c2nc3ccccc3[nH]2)o1`, the concentration for a half-maximal effect (EC50) amounted to 23.4 µg/mL (≈ 89.8 µM) in the test on Sclerotinia sclerotiorum and 24.1 µg/mL (≈ 92.8 µM) with Botrytis cinerea.

Turning to `CSc1nnc(-c2nc3ccccc3[nH]2)o1`, the EC50 is 2.04 µg/mL (≈ 8.78 µM) in the test on Sclerotinia sclerotiorum and 10.6 µg/mL (≈ 45.5 µM) in the test with Botrytis cinerea.

Take `CCCCSc1nnc(-c2nc3ccccc3[nH]2)o1`: the values for the EC50 in the test on Sclerotinia sclerotiorum and in the test with Botrytis cinerea were 9.12 µg/mL (≈ 33.2 µM) and 9.86 µg/mL (≈ 35.9 µM), respectively.

Regarding `CCCCSc1nnc(-c2nc3ccccc3n2Cc2ccc(F)cc2)o1`, the EC50 amounted to 0.94 µg/mL (≈ 2.46 µM) in the test on Sclerotinia sclerotiorum and 6.26 µg/mL (≈ 16.4 µM) in the test with Botrytis cinerea.

As to `Fc1ccc(CSc2nnc(-c3nc4ccccc4[nH]3)o2)cc1`, the EC50 in the test on Sclerotinia sclerotiorum is 20.5 µg/mL (≈ 62.7 µM); with Botrytis cinerea, 12.8 µg/mL (≈ 39.1 µM).

In the case of `CCCSc1nnc(-c2nc3ccccc3n2Cc2ccc(F)cc2)o1`, the half-maximal effective concentration (EC50) in the test on Sclerotinia sclerotiorum amounted to 2.03 µg/mL (≈ 5.51 µM); in the test with Botrytis cinerea it was 5.63 µg/mL (≈ 15.3 µM).

`Fc1ccc(Cn2c(-c3nnc(SCc4ccccc4)o3)nc3ccccc32)cc1`: the EC50 in the test on Sclerotinia sclerotiorum is 0.04 µg/mL (≈ 0.096 µM); in the test with Botrytis cinerea it was 1.31 µg/mL (≈ 3.15 µM).

Regarding `Fc1ccc(CSc2nnc(-c3nc4ccccc4n3Cc3ccc(F)cc3)o2)cc1`, the EC50 with Sclerotinia sclerotiorum was 7.52 µg/mL (≈ 17.3 µM); in the test with Botrytis cinerea, 13.9 µg/mL (≈ 32.1 µM).

In the case of `CCSc1nnc(-c2nc3ccccc3n2Cc2ccc(F)cc2)o1`, the values for the EC50 in the test with Sclerotinia sclerotiorum and with Botrytis cinerea were 8.86 µg/mL (≈ 25 µM) and 3.08 µg/mL (≈ 8.69 µM), respectively.

Turning to `Fc1ccc(Cn2c(-c3nnc(SCc4ccc(Cl)cc4)o3)nc3ccccc32)cc1`, the values for the EC50 in the test with Sclerotinia sclerotiorum and in the test on Botrytis cinerea were 0.43 µg/mL (≈ 0.954 µM) and 6.07 µg/mL (≈ 13.5 µM), respectively.

Regarding `CCSc1nnc(-c2nc3ccccc3[nH]2)o1`, the concentration giving a half-maximal response (EC50) in the test with Sclerotinia sclerotiorum is 1.31 µg/mL (≈ 5.32 µM); in the test on Botrytis cinerea it was 2.7 µg/mL (≈ 11 µM).

On to `Fc1ccc(Cn2c(-c3nnc(SCc4ccc(Cl)cc4Cl)o3)nc3ccccc32)cc1`, for which the EC50 in the test on Sclerotinia sclerotiorum was 0.55 µg/mL (≈ 1.13 µM); in the test with Botrytis cinerea, 7.81 µg/mL (≈ 16.1 µM).

As for `CSc1nnc(-c2nc3ccccc3n2Cc2ccc(F)cc2)o1`, the EC50 with Sclerotinia sclerotiorum is 12.4 µg/mL (≈ 36.3 µM); in the test on Botrytis cinerea it was 14 µg/mL (≈ 41 µM).

As to `Clc1ccc(CSc2nnc(-c3nc4ccccc4[nH]3)o2)cc1`, the EC50 in the test with Sclerotinia sclerotiorum was found to be 9.1 µg/mL (≈ 26.5 µM); in the test on Botrytis cinerea, 14.8 µg/mL (≈ 43.3 µM).

Regarding `Clc1ccc(CSc2nnc(-c3nc4ccccc4[nH]3)o2)c(Cl)c1`, the EC50 with Sclerotinia sclerotiorum was 22.7 µg/mL (≈ 60.3 µM); in the test on Botrytis cinerea, 16.4 µg/mL (≈ 43.4 µM).

As for `CCCSc1nnc(-c2nc3ccccc3[nH]2)o1`, the EC50 was found to be 18.2 µg/mL (≈ 70 µM) with Sclerotinia sclerotiorum and 16.6 µg/mL (≈ 63.6 µM) in the test on Botrytis cinerea.

For the compound `COC(=O)Nc1nc2ccccc2[nH]1` [CARBENDAZIM], the values for the EC50 in the test on Sclerotinia sclerotiorum and with Botrytis cinerea were 0.13 µg/mL (≈ 0.68 µM) and 7.4 µg/mL (≈ 38.7 µM), respectively.

Turning to `CC(C)Sc1nnc(-c2nc3ccccc3n2Cc2ccc(F)cc2)o1`, the EC50 in the test on Sclerotinia sclerotiorum is 10.2 µg/mL (≈ 27.5 µM); in the test with Botrytis cinerea it was 11.4 µg/mL (≈ 30.9 µM).

Source of the values: ChEMBL document CHEMBL3045493, “Synthesis and antifungal activity of novel 2,5-disubstituted-1,3,4-oxadiazoles containing benzimidazole moiety” (J Pestic Sci, 2012).
